# Results reported in patent publication US20130047297A1, “POLYNUCLEOTIDE MOLECULES FOR GENE REGULATION IN PLANTS” (priority 2010, published 2013).
# B1: synthetic Pol III gene: dsDNA, SEQ ID NO:3, U6 snRNA elements with anti-sense and sense DNA of bacterial EPSPS (nucleic acid)
# DNA: GGCCCATAGGCCTTTTTCTAAAATAGGCCCATTTAAGCTATTAACAATCTTCAAAAGTACCACATCGCTTAGGTAAAGAAAGCAGCTGAGTTTATATATGGTTAGAGACGAAGTAGTGATTGCGACGAGCGACGTCTCGCCCTCATCGCAATCCACGCCATTGAGCTTGAGGCCATTGGCGACGGCCGAGAGGCGGTCGCTTAAGATTAGCATGTCCTTGACGCGGAGTTCTTCCAGACCGTTCATCACGGTCGCCCCTTCCGCGAAGGCGGCGGCGACAGCGAGAATCGGATATTCGTCGATCATCGAAGGCGCGCGGTCTTCCGGCACCGTGACGCATAAACACGGTGCCGGAAGACCGCGCGCCTTCGATGATCGACGAATATCCGATTCTCGCTGTCGCCGCCGCCTTCGCGGAAGGGGCGACCGTGATGAACGGTCTGGAAGAACTCCGCGTCAAGGAAAGCGACCGCCTCTCGGCCGTCGCCAATGGCCTCAAGCTCAATGGCGTGGATTGCGATGAGGGCGAGACGTCGCTCGTCGTTTTTTTTGGCAAAAA
# Assays:
# Assay type in all cases: in vivo
# [1] = test system: Glyphosate-resistant Palmer amaranth plants having 49 or 63 copies EPSPS; assay: Salicylic acid pretreatment with dsRNA and glyphosate (Example 15); settings: 15 millimolar SA 1, 5, or 24 hours before dsRNA; glyphosate 72 hours later; 7 days after glyphosate
# Experimental: Salicylic acid (SA) induces virus resistance in tobacco; see, e. g., Chivasa et al. (1997) Plant Cell, 19:547-557. Glyphosate-resistant Palmer amaranth plants having 49 or 63 copies EPSPS were pretreated with 15 millimolar SA. A solution of the four oligonucleotide-size “short” EPSPS dsRNA molecules (described in Example 1) was applied by hand at 1, 5, or 24 hours after treatment with SA, followed 72 hours later by spraying with glyphosate (1682 g acid equivalent per hectare of Roundup® WeatherMAX® brand herbicide).
# [2] = test system: Glyphosate-resistant Palmer amaranth plants (33, 36, or 57 copies EPSPS); assay: Spermine, spermidine or ammonium sulfate with dsRNA then glyphosate (Example 35, FIG. 39); settings: 10 mM spermidine alone
# Experimental: The effect of the polyamine cations spermine (N,N′-bis(3-aminopropyl)butane-1,4-diamine) and spermidine (N-(3-aminopropyl)butane-1,4-diamine) on herbicidal activity of topically applied polynucleotides (RNA) on glyphosate-resistant Palmer amaranth plants was investigated. […] The dsRNA polynucleotide solutions were prepared with either 1 or 10 millimolar spermine or spermidine or 2% ammonium sulfate, in a 10 millimolar sodium phosphate (pH 6.8) buffer. Control solutions (without polynucleotides) were prepared with either 1 or 10 millimolar spermine or spermidine or 2% ammonium sulfate, in a 10 millimolar sodium phosphate (pH 6.8) buffer. Glyphosate-resistant Palmer amaranth plants (33, 36, or 57 copies EPSPS) were pre-sprayed with 1% Silwet L-77. The dsRNA polynucleotide solutions (11.6 grams/acre) or buffer solutions were applied as drops on four lower fully expanded leaves of glyphos ate resistant Palmer amaranth by pipetting. Two days following polynucleotide treatment the plants were sprayed with glyphosate (3360 g acid equivalent per hectare of Roundup® WeatherMAX® brand herbicide).
# [3] = test system: endogenous PDS, EPSPS, or RuBisCO genes from Nicotiana benthamiana; assay: PDS, EPSPS, RuBisCO anti-sense polynucleotides on Nicotiana benthamiana, plant height (Example 33); settings: PDS 25 nanomoles, EPSPS and RuBisCO 50 nanomoles of each per plant
# Experimental: Nicotiana benthamiana plants were treated using a procedure similar to that described in Example 12. Polynucleotide solution (or mixed polynucleotides in the case of EPSPS and RuBisCO) were prepared in 0.01% (v/v) Silwet L-77 and 2% (w/v) ammonium sulfate in 5 millimolar sodium phosphate, pH 6.8. Two fully expanded leaves per plant were dipped into 0.1% Silwet L-77 solution freshly made with ddH2O for a few seconds, and allowed to dry. About 30 minutes later, 20 microliters of polynucleotide solution, was applied to each of the two pre-treated leaves. For PDS, each of 5 plants received 25 nanomoles of the PDS anti-sense polynucleotide (SEQ ID NO:34); for EPSPS, each of 5 plants received 50 nanomoles of each EPSPS anti-sense polynucleotide (SEQ ID NOS:279-284); and for RuBisCO, each of 5 plants received 50 nanomoles of each RuBisCO anti-sense polynucleotide (SEQ ID NOS:288-295). Paired control plants were treated with buffer (0.01% (v/v) Silwet L-77 and 2% (w/v) ammonium sulfate in 5 millimolar sodium phosphate, pH 6.8).
# [4] = test system: Nicotiana benthamiana phytoene desaturase; assay: Topical oligonucleotides/polynucleotides on tobacco, PDS bleaching and chlorophyll (Example 10)
# Experimental: The following procedure was used for all assays described in this example. Four-week old Nicotiana benthamiana plants were used in all assays. Plants were treated with 0.1% Silwet L-77 solution freshly made with ddH2O. Two fully expanded leaves per plant (one cotyledon, one true leaf) were dipped into the Silwet L-77 solution for a few seconds, and allowed to dry for 15-30 minutes before application of the polynucleotide composition. Final concentration for each oligonucleotide or polynucleotide was 25 microM (in 0.01% Silwet L-77, 5 mM sodium phosphate buffer, pH 6.8) unless otherwise stated. 20 microliters of the solution was applied to the top surface of each of the two pre-treated leaves to provide a total of 40 microliters (1 nmol oligonucleotide or polynucleotide) for each plant. Leaf bleaching was observed 3 days post treatment.
# FIG. 13 illustrates phenotypes observed at day 12 after treatment in another assay of the effect from twelve combinations of polynucleotides or oligonucleotides (see Table 4). Table 4 also lists observations of visible bleaching of the plants at day 5 after treatment and the results of chlorophyll measurements taken at days 7 and 12 after treatment. Chlorophyll measurements are an indication of suppression of the target gene phytoene desaturase, and measurements were taken at 6 spots on the apical area, focussing on visibly bleached leaves or (in plants without visible bleaching) on leaves in equivalent locations on the plants; lower chlorophyll measurement values indicate suppression of phytoene desaturase.
# [5] = test system: endogenous Nicotiana benthamiana Argonaute-1 (AGO1) gene; assay: AGO1 anti-sense with PDS anti-sense, systemic bleaching (Example 33); settings: PDS 25 nanomoles; AGO1 50 nanomoles of each of 14; combined applied on separate leaves
# Experimental: Nicotiana benthamiana plants were treated using a procedure similar to that described in Example 12. Polynucleotide solution (or mixed polynucleotides in the case of AGO1) were prepared in 0.01% (v/v) Silwet L-77 and 2% (w/v) ammonium sulfate in 5 millimolar sodium phosphate, pH 6.8. Two fully expanded leaves per plant were dipped into 0.1% Silwet L-77 solution freshly made with ddH2O for a few seconds, and allowed to dry. About 30 minutes later, 20 microliters of polynucleotide solution was applied to each of the two pre-treated leaves. For PDS, each of 5 plants received 25 nanomoles of the PDS anti-sense polynucleotide (SEQ ID NO:34); for AGO1, each of 5 plants received 50 nanomoles of each of the 14 AGO1 anti-sense polynucleotides (SEQ ID NOS:300-313); for PDS and AGO combined treatments, each of 5 plants received 25 nanomoles of the PDS anti-sense polynucleotide (SEQ ID NO:34) and 50 nanomoles of each of the 14 AGO1 anti-sense polynucleotides (SEQ ID NOS:300-313) applied on separate leaves. Paired control plants were treated with buffer (0.01% (v/v) Silwet L-77 and 2% (w/v) ammonium sulfate in 5 millimolar sodium phosphate, pH 6.8). No difference was observed between plants treated with the AGO1 anti-sense polynucleotides and the plants treated with buffer alone.
# [6] = test system: glyphosate-resistant soybean plants; assay: Synthetic Pol III gene dsDNA, soybean crop (Example 8); settings: 0.1 wt % Silwet L-77 and dsDNA sprayed, glyphosate 7 days later; 15 days later
# Excerpt: (§1) This example illustrates the utility of employing a synthetic Pol III gene in compositions and methods of this invention. With reference to SEQ ID NO:3 and FIG. 2, a synthetic Pol III gene is created using elements from an Arabidopsis thaliana U6 snRNA gene to provide a dsDNA molecule with two copies of RGCCCR elements (bold and underlined), an upstream sequence element (USE) having the sequence “[…]” (SEQ ID NO:4, bold and underlined), a TATA box (bold and underlined), a “G” nucleotide (bold and underlined), anti-sense DNA (italics) corresponding to a bacterial DNA encoding an EPSPS protein (see U.S. Pat. No. RE39,247) that imparts resistance to glyphosate herbicide when expressed in transgenic corn plants, an “[…]” element (SEQ ID NO:5, bold and underlined) embedded in the anti-sense DNA, an “[…]” element (SEQ ID NO:6, bold and underlined) followed by sense DNA (lower case) and a “TTTTTT” terminator element (SEQ ID NO:7, bold and underlined). A solution of 0.1 wt % Silwet L-77 brand organosilicone surfactant and a solution of multiple copies of the dsDNA molecule are sprayed onto leaves of volunteer glyphosate-resistant corn plants growing in a field of glyphosate-resistant soybean plants, followed 7 days later by treatment with Roundup WeatherMAX® brand glyphosate herbicide. […]
# [7] = test system: volunteer glyphosate-resistant corn plants; assay: Synthetic Pol III gene dsDNA on volunteer corn (Example 8); settings: 0.1 wt % Silwet L-77 and dsDNA sprayed, glyphosate 7 days later; 15 days later
# Excerpt: as §1
molecule,measurement,setting,value
"O=C(O)c1ccccc1O [SA, Salicylic acid]",improvement of the effects of the dsRNAs and glyphosate activity (plant height),[1],No improvement
"NCCCCNCCCN [spermidine, N-(3-aminopropyl)butane-1,4-diamine]","plant outcome, 33-copy",[2],stunted
"PDS 21-mer anti-sense ssDNA: SEQ ID NO:34 (antisense CATCTCCTTTAATTGTACTGC; DNA, backbone not given here)",plant height (FIG. 36),[3]; 12 days (PDS and EPSPS) or 10 days (RuBisCO) after treatment,severe stunting
same,other phenotype,[3],bleaching
same,bleaching of apical leaves (FIG. 15),[4]; another assay,strong bleaching
same,bleaching of apical leaves (FIG. 14),[4]; topical treatment,Strong bleaching
same,systemic bleaching / difference from buffer,[5],displayed systemic bleaching
B1,soybean plant outcome,[6],thriving
same,corn plant outcome,[7],dead
